Source: patent publication US20240300945A1, “CLY SERIES COMPOUND, PREPARATION METHOD THEREFOR AND USE THEREOF IN PREPARATION OF DRUGS” (NANJING WELLBEST PHARMACEUTICAL CO., LTD, priority 2021, published 2024)

What was measured:
rabbit ear acne model = assay: Rabbit ear acne model: macroscopic observation and histological grading; assay type: in vivo, New Zealand rabbits; conditions: right ear, 10 per group; for number of rabbits with acne histological grading 2+: Grade 2; for number of rabbits with acne histological grading —: Level 0, without acne; for number of rabbits with acne histological grading 1+: Level 1; for number of rabbits with acne histological grading 3+: Level 3
Source text: (1) Preparation method of treatment cream: The excipient matrix components included methyl silicone oil (15%), stearic acid (6%), white vaseline (5%), liquid paraffin (5%), octadecanol (5%), glycerin (20%), alkyl aryl polyglycol ether (1%), fatty alcohol polyoxyethylene ether (1%), […] (1%), ethyl paraben (0.1%), distilled water (about 31-55%), and mixed with appropriate amount of CLY series compounds to form a mixed emulsion. The emulsion matrix used in this embodiment refers to the matrix component after the active ingredient was removed from the emulsion.
(2) Positive therapeutic drug: 0.1% adapalene gel (Trade name: Differin, produced by Laboratoires Galderma, France).
New Zealand rabbits were, according to weights, randomly divided into the model control group (applied cream matrix), positive treatment group (applied Differin on the skin), CLY-1 external treatment group (0.25% CLY-1 cream on the skin), CLY-2 external treatment group (0.25% CLY-2 cream on the skin), CLY-3 external treatment group (0.25% CLY-3 cream on the skin), CLY-4 external treatment group (0.25% CLY-4 cream on the skin) CLY-8 external treatment group (0.25% CLY-8 cream on the skin), CLY-9 external treatment group (0.25% CLY-9 cream on the skin), CLY-11 external treatment group (0.25% CLY-11 cream on the skin), CLY-19 external treatment group (0.25% CLY-19 cream on the skin), CLY-36 external treatment group (0.25% CLY-36 cream on the skin); CLY-1 intravenous injection group (1 mg/kg·d), CLY-2 intravenous injection group (1 mg/kg·d), CLY-3 intravenous injection group (1 mg/kg·d), CLY-4 intravenous injection group (1 mg/kg·d), CLY-8 intravenous injection group (1 mg/kg·d), CLY-9 intravenous injection group (1 mg/kg·d), CLY-11 intravenous injection group (1 mg/kg·d), CLY-19 intravenous injection group (1 mg/kg·d), and CLY-36 intravenous injection group (1 mg/kg·d), with 10 in each group. Took the inner side of the rabbit's right ear for depilation treatment as the observation area, and the inner side of the left ear of all rabbits as their own negative control, and applied 95% alcohol. The inner side of the right ear of the model group and the treatment group were both coated with 2% coal tar (Alfa Aesar China, which used 95% alcohol to prepare 2% coal tar solution), and evenly applied the sterile cotton swab to the opening of the ear duct on the inner side of the rabbit's ear within the range of about 2 cm×2 cm, once a day, 0.5 mL each time, and wiped the previous application site with warm water for 14 consecutive days to establish the acne micro-pigmentation model. Visually observed the changes of local skin, including ear thickness, hardness, roughness, and whether there was a black angle plug at the hair follicle mouth. 18 hours after the last application, the sample was sacrificed and skin was taken. The skin tissue was taken from the application site by using a 5 mm punch, fixed with 10% formaldehyde, embedded in paraffin, and stained with HE. The histopathological observation and analysis were carried out.
The histological grading criteria of the acne model: 3 grades according to histological grade. […] The tight keratin embolism in the hair follicles causes severe expansion of the hair follicles, obvious hyperplasia of the sebaceous duct epithelium, skin bulges and scars, and some sebaceous glands degenerate “3±”.
SPSS16 software was used for statistical analysis. The paired t-test was used for the left and right self-contrast, and the t-test was used for the comparison between the groups, P<0.05 was statistically significant.

mouse eczema model = assay: Mouse eczema model: ear thickness; assay type: in vivo, C57BL/6 mice; conditions: after modeling, 14th day; 0.1% cream for external use twice a day, 10 days (positive: aloxone)
Source text: Preparation method of CLY cream: the matrix components included methyl silicone oil (15%), stearic acid (6%), white vaseline (5%), liquid paraffin (5%), octadecanol (5%), glycerin (20%), alkyl aryl polyglycol ether (1%), fatty alcohol polyoxyethylene ether (1%), Tween-807 (1%), ethyl paraben (0.1%), distilled water (about 31-55%), and it was mixed with an appropriate amount of CLY series compound liquid to form a mixed emulsion. The cream matrix used in this embodiment refers to the matrix components after the active ingredients were removed from the cream.
SPF grade female C57BL/6 mice were purchased at the age of 8 weeks (0.02 kg), 6 in each group, and randomly divided into the blank control group, model group, positive drug group, CLY-1 treatment group (0.1% CLY-1 cream for external use), CLY-2 treatment group (0.1% CLY-2 cream for external use), CLY-3 treatment group (0.1% CLY-3 cream for external use), CLY-4 treatment group (0.1% CLY-4 cream for external use), CLY-8 treatment group (0.1% CLY-8 cream for external use), CLY-11 treatment group (0.1% CLY-11 cream for external use) CLY-19 treatment group (0.1% CLY-19 cream for external use), CLY-36 treatment group (0.1% CLY-36 cream for external use) and CLY-39 treatment group (0.1% CLY-39 cream for external use).
Model establishment: the normal control group mice were smeared with 75% ethanol 14.3 ul on both ears, while the model group, positive drug group and treatment group were smeared with 1 nmol/L carpotriol liniment 14.3 ul on both ears at a regular time every day, and then smeared with 20 g/L OVA 25 ul after air drying, once a day, for 12 days to make a model.
From 4 days after the start of modeling, applied the cream matrix on the ear skin of mice in the blank control group and the model group, applied aloxone on the ear skin of mice in the positive drug group, and applied the treatment cream on the ear skin of mice in each treatment group respectively, twice a day in the morning and evening, for 10 consecutive days, took photos every day, and recorded scores.
The thickness of mouse auricle was measured and recorded with ear thickness measuring instrument before and on the 14th day respectively. After the measurement on the 14th day, the mice were sacrificed. Blood was taken and serum was separated.

[1] = external use (0.25% CLY cream; positive: Differin)
[2] = intravenous injection 1 mg/kg·d

SMILES	number of rabbits with acne histological grading 2+ (rabbit ear acne model; [1])	number of rabbits with acne histological grading 2+ (rabbit ear acne model; [2])	number of rabbits with acne histological grading — (rabbit ear acne model; [1])	number of rabbits with acne histological grading — (rabbit ear acne model; [2])	number of rabbits with acne histological grading 1+ (rabbit ear acne model; [1])	number of rabbits with acne histological grading 1+ (rabbit ear acne model; [2])	number of rabbits with acne histological grading 3+ (rabbit ear acne model; [1])	number of rabbits with acne histological grading 3+ (rabbit ear acne model; [2])	Ear thickness (mouse eczema model) [mm]
CN1CCC[C@@H](N(C(=O)c2ccc(-n3nnc4cccnc43)cc2)c2ncccc2Cl)C1 [CLY-1, (R)-4-(3H-[1,2,3]triazolo[4,5-b]pyridin-3-yl)-N-(3-chloropyridin-2-yl)-N-(1-methylpiperidin-3-yl)benzamide]	2	1	5	7	3	2	0	0	0.251
CCN1CCC[C@@H](N(C(=O)c2ccc(-n3nnc4cccnc43)cc2)c2ncccc2Cl)C1 [CLY-2, (R)-4-(3H-[1,2,3]triazolo[4,5-b]pyridin-3-yl)-N-(3-chloropyridin-2-yl)-N-(1-ethylpiperidin-3-yl)benzamide]	2	1	6	8	2	1	0	0	0.246
CNC1CCCC(N(C(=O)c2ccc(-n3nnc4cccnc43)cc2)c2ncccc2Cl)C1 (stereo not drawn) [CLY-3]	2	2	4	6	4	2	0	0	0.297
O=C(c1ccc(-n2nnc3cccnc32)cc1)N(c1ncccc1Cl)C1CCCC(O)C1 (stereo not drawn) [CLY-4]	2	2	3	5	5	3	0	0	0.323
O=C(c1ccc(-n2nnc3cccnc32)cc1)N(c1ncccc1Cl)[C@@H]1CCNC1 [CLY-8, (R)-4-(3H-[1,2,3]triazolo[4,5-b]pyridin-3-yl)-N-(3-chloropyridin-2-yl)-N-(pyrrolidin-3-yl)benzamide]	1	0	8	9	1	1	0	0	0.245
NC1CCCC(N(C(=O)c2ccc(-n3nnc4cccnc43)cc2)c2ncccc2Cl)C1 (stereo not drawn) [CLY-11]	2	1	5	7	3	2	0	0	0.278
O=C(c1ccc(-c2ccccc2-c2nnn[nH]2)cc1)N(c1ncccc1Cl)[C@@H]1CCCNC1 [CLY-19]	3	1	5	8	2	1	0	0	0.253
O=C(c1ccc(-c2ccccc2Cl)cc1)N(c1ncccc1Cl)[C@@H]1CCCNC1 [CLY-36]	4	2	5	7	1	1	0	0	0.248
Nc1ccccc1-c1ccc(C(=O)N(c2ncccc2Cl)[C@@H]2CCCNC2)cc1 [CLY-39]	1	1	6	7	3	2	0	0	0.246
